Measured values from PubChem BioAssay AID463074 (Broad Institute, 2010).
Activity calls are given as the source filed them.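 How the source made its calls: active means AC50 no more than tenfold above the top dose tested, or full inhibition at every dose with a flat fit (cut at about 19 µM in these data); inconclusive means flat curve fit with inhibition between 30% and 70%, or poor fit; inactive means AC50 more than tenfold above the top dose tested.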

System: HMLE_sh_eGFP viability, CellTiter-Glo luminescence, 72 h
Experiment: viability loss of HMLE_sh_eGFP cells – cell-based, luminescence, counter-screen for HMLE_sh_ECad selective toxicity project, dose response (AID 463074);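 further: counterscreen control line to flag general toxicity for the HMLE_sh_ECad screen; potency for loss of viability as luminescence drops below DMSO wells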

SMILES | AC50
COc1ccc(-c2sc3cc(OC)c(OC)cc3c2-c2ccc(O)cc2)cc1 | 3.7 µM
O=[N+]([O-])c1ccc(S(=O)(=O)CC(CN2CCCCC2)N2CCCCC2)cc1 (centres undefined) | 5.37 µM
Cc1ccc(N2C(=O)C3C4C=CC(CC4)C3C2=O)cc1Br (centres undefined) | 1.38 µM
Cc1cc(SCC(=O)c2cccs2)n2nc(C)c(-c3ccc(Cl)cc3)c2n1 | 15.5 µM
COC(=O)c1ccc(/C=C/c2c(-c3ccc(OC)cc3)oc3ccc(N4CCOCC4)cc23)cc1 | 4.19 µM
COc1ccccc1-c1sc2ccccc2c1C#CC1(O)CCCCC1 | 10.8 µM
CCN(CC)CCCNC(=S)N1CCN(c2nc(-c3ccc(F)cc3)cs2)CC1 | 2.44 µM
COc1cccc(-c2sc3ccc(OC)cc3c2C#CCC(C)O)c1 (centres undefined) | 5.4 µM
O=C(/C(=C\c1ccccc1)c1nc2ccccc2[nH]1)c1ccc(Cl)cc1 | 3.27 µM
CC(NC(=O)c1ccc([N+](=O)[O-])o1)C12CC3CC(CC(C3)C1)C2 (centres undefined) | 9.54 µM
Cc1snc(S(=O)(=O)/C(C#N)=N/Nc2ccc(C(F)(F)F)cc2)c1C#N | 19.7 µM
CCOC(=O)C(=O)NNc1ccc(Cl)cc1 | 1.37 µM
CCc1ccc(Nc2nc(N)nc(CSc3nc4ccccc4s3)n2)cc1 | > 19.5 µM (inactive)
CCC1(C)Cc2c(sc3nc(SC)n(Cc4ccccc4)c(=O)c23)CO1 (centres undefined) | 2.77 µM
CCCCC[C@@H]1C=C(C(=O)O)[C@H](c2ccc(Cl)c(Cl)c2)N1S(=O)(=O)c1ccc(C)cc1 | 5.05 µM
O=C(CN1c2ccccc2Sc2ccccc21)NNC(=O)Nc1ccc(Cl)c(Cl)c1 | 3.46 µM
CC(/C=N/n1c(C2CCCCC2)n[nH]c1=S)=C\c1ccccc1 | 4.88 µM
CN1CCN(S(=O)(=O)c2cccc(C(=O)Nc3cc(C(F)(F)F)ccc3N3CCCCC3)c2)CC1 | 5.34 µM
O=C(NC(c1ccc(Cl)cc1)c1c(O)ccc2ccccc12)c1ccccc1 (centres undefined) | 2 µM
Cn1c(-c2ccsc2)c(-c2cccs2)c2cc(Br)ccc21 | 5.92 µM
COC(=O)c1c(NC(=O)c2ccc(C)c(S(=O)(=O)Nc3ccccc3C)c2)sc2c1CCCC2 | 1.31 µM
C/C(=N\NC(N)=S)c1cc(-c2ccccc2)c(-c2ccccc2)s1 | 3.94 µM
COc1ccc2c(c1)-c1nc(NC(=O)c3cccs3)sc1CC2 | 11.3 µM
COc1ccc(-c2noc3c2-c2nc(-c4ccccc4C)sc2CC3)cc1 | 1.03 µM
Cc1ccc(C(=O)N2N=C(c3ccc(Br)cc3)CC2c2ccccc2O)cc1 (centres undefined) | 3.54 µM
COC(=O)c1ccccc1NC(=O)c1nc(S(=O)(=O)Cc2ccccc2)ncc1Cl | 3.25 µM

SMILES | AC50
O=C(Nc1ccc(S(=O)(=O)N2CCOCC2)cc1)c1cc(-c2cc(Cl)ccc2O)n[nH]1 | 2.18 µM
COc1cccc(C2C3=C(N=c4s/c(=C\c5cccc(O)c5)c(=O)n42)c2ccccc2CC3)c1OC (centres undefined) | 8.57 µM
Cc1ccc2sc(N(CCCN(C)C)C(=O)c3ccc(S(=O)(=O)N(C)C4CCCCC4)cc3)nc2c1C | 3.63 µM
Cc1ccc(N2NC(=O)/C(=C\c3cc4c(cc3[N+](=O)[O-])OCO4)C2=O)cc1C | 4.44 µM
O=C(COc1cccc(C(F)(F)F)c1)N1CCN(c2ccc(O)cc2)CC1 | 4.98 µM
CC(NCc1ccc(OCc2ccc(Cl)cc2)cc1)C(O)c1ccccc1 (centres undefined) | 3.57 µM
CCOc1ccc(N/C(N)=N/c2nc(CSc3nnc(C)s3)cc(=O)[nH]2)cc1 | 0.609 µM
Cc1nc(C2CCC3C4CCC5=CC(=O)CC[C@]5(C)C4CC[C@]23C)cs1 (some centres undefined) | 7.15 µM
COc1ccc(CN2CCC(N(CCc3ccccc3)Cc3ccccc3)CC2)c(OC)c1 | 5.43 µM
CC(=O)Oc1ccc(C2=NN(c3ccccc3)C(c3ccccc3)C2)cc1 (centres undefined) | 4.18 µM
CCCCNc1c(-c2cccc(Sc3ccc(OC)cc3)c2)nc2ccccn12 | 6.56 µM
O=C(Nc1ccc([N+](=O)[O-])cc1)Nc1ccc(OC(F)F)c(Cl)c1 | 2.09 µM
CN1CCN(Cc2nc3ccccc3c(=O)n2Cc2nc(-c3ccc4ccccc4c3)cs2)CC1 | 3.59 µM
CCC/C=C(\CCC)C(NS(=O)(=O)c1ccc(C(F)(F)F)cc1)c1ccccc1 (centres undefined) | 3.93 µM
Cc1ccc(C)c(S(=O)(=O)N2CCN(c3ncnc4sccc34)CC2)c1 | 3.19 µM
CC12CCC(C/C1=N\N=C1\NC(=O)/C(=C\c3cccc(Br)c3)S1)C2(C)C (centres undefined) | 2.49 µM
CNC(=O)NC(=O)C(C)OC(=O)c1oc2ccccc2c1CSc1ccc(Cl)cc1 (centres undefined) | 19.3 µM
N=c1c2c(ncn1Cc1ccco1)Oc1ccc3ccccc3c1C2c1ccccc1 (centres undefined) | 4.5 µM
COc1ccc(/C=C2\C(=O)c3ccccc3OC2c2ccccc2)cc1 (centres undefined) | 1.38 µM
O=c1c2cn[nH]c2nc(SCc2ccccc2F)n1-c1ccc(Br)cc1 | 4.9 µM
Cc1cc(C)nc(NC(=O)/C=C/c2cccs2)c1 | > 19.5 µM (inactive)
COc1ccc(OC)c(/C=C2\S/C(=N/NC(=O)c3ccc4ccccc4c3)NC2=O)c1 | 9.71 µM
C/C(CC(=O)Nc1ccc(Cl)c(C(F)(F)F)c1)=N\NC(=O)c1cc2ccccc2cc1O | 13.3 µM
COc1cc2c(cc1OC)C(c1ccc(-c3ccc(Cl)c(Cl)c3)o1)=NCC2 | 3.99 µM
O=C(CN(c1ccc(Cl)cc1)S(=O)(=O)c1ccc(Cl)c([N+](=O)[O-])c1)NCCc1ccc(F)cc1 | 3.81 µM
O=C(Nc1ccc2c(c1)OCO2)c1cc(-c2ccc(O)cc2)on1 | 1.33 µM

SMILES | AC50
C=C(C)Cn1c(SCC(=O)N/N=C/c2c(O)ccc3ccccc23)nc2ccccc2c1=O | 5.62 µM
Cc1ccccc1N1CCN(C(=O)c2ccc(Oc3ccc(C(F)(F)F)cn3)cc2)CC1 | 4.66 µM
CCCOc1ccc2c(c1)C(=NN=C(N)N)c1cc(OCCC)ccc1-2 | 3.7 µM
Cc1ccc(NNC(=O)C(O)(c2cccc(C(F)(F)F)c2)c2cccc(C(F)(F)F)c2)cc1 | 3.29 µM
COc1ccc(/C=C/C(=O)c2ccc(O)cc2)cc1COc1ccc(F)cc1 | 4.37 µM
CC1CCCC(NC(=S)Nc2ccc(SC(F)F)cc2)C1C (centres undefined) | 6.34 µM
Cc1nn(Cc2ccccc2)c(C)c1C(=O)OCC(=O)c1cc(C)n(CC(F)(F)F)c1C | 14 µM
CCOC(=O)C1=C(N)Oc2cc(O)ccc2C1c1cccc(Cl)c1 (centres undefined) | 4.06 µM
Cc1ccc(-n2nc(C)c3c(C)c(CCC(=O)Nc4ccc(CN5CCCC5)cc4)c(C)nc32)cc1 | 3.79 µM
O=S(=O)(N/N=C1/CC(c2ccccc2)Oc2ccccc21)c1ccc(Br)cc1 (centres undefined) | 4.21 µM
S=C(Nc1cccc(Cl)c1)N(CCCN1CCCC1)Cc1cccn1Cc1ccc(Cl)cc1 | 6.86 µM
CCCCNc1c(-c2ccc(OC)c(Sc3ccc(OC)cc3)c2)nc2ccccn12 | 4.55 µM
O=C(NC(NC(=S)Nc1cccc(Cl)c1)C(Cl)(Cl)Cl)OCc1ccccc1 (centres undefined) | 3.93 µM
Cc1nc2sccn2c(=O)c1CCN1CCC(=C(c2ccc(F)cc2)c2ccc(F)cc2)CC1 | 5.23 µM
COc1ccc(-c2sc3ccc(N4CCOCC4)cc3c2C#CC2(O)CCCCC2)cc1 | 2.94 µM
Oc1ccc(Nc2nc(-c3ccccc3O)nc3ccccc23)cc1 | 4.27 µM
Cc1nn(Cc2ccc(Cl)cc2)c(C)c1NC(=O)c1cc(-c2ccc3c(c2)OCO3)on1 | 1.17 µM
C[C@H](CO)N1C[C@H](C)[C@@H](CN(C)S(=O)(=O)c2ccc(F)cc2)Oc2ccc(NC(=O)Nc3ccc(C(F)(F)F)cc3)cc2C1=O | 17.1 µM
O=C1C(Cl)=C(Nc2ccccc2)C(=O)c2ccccc21 | 2.19 µM
Nc1c(C(=O)Nc2ccccc2)c2nc3ccccc3nc2n1CCCN1CCOCC1 | 6.77 µM
CCCCNc1c(-c2ccc(-c3cccc(Cl)c3)cc2)nc2ccccn12 | 3.87 µM
Cc1cc(C)cc(CC(Cc2nc3ccccc3[nH]2)c2nc3ccccc3[nH]2)c1 (centres undefined) | 7.82 µM
Clc1ccc(-c2nnnn2-c2ccc(Cl)c(Cl)c2)cc1Cl | 15.2 µM
COc1ccc(C(=O)Nc2ccc(OCC(F)(F)C(F)F)c(C(F)(F)F)c2)cc1OC | 5.48 µM
Cc1ccc(S(=O)(=O)Nc2ccccc2-c2ccccc2NS(=O)(=O)c2ccc(C)cc2)cc1 | 6.98 µM
CC(C)=CCC/C(C)=C/Cc1c(O)ccc(C(=O)/C=C/c2ccc(O)cc2)c1O | 6.42 µM

SMILES | AC50
CC(Nc1nc(-c2ccc(Cl)cc2)cs1)c1nc2cc(Cl)c(N3CCCCC3)cc2n1CCOCCO (centres undefined) | 1.97 µM
CC(=O)Nc1ccc(NC(=O)CSc2ncc(C(=O)Nc3ccccc3)c(=O)n2C)cc1 | 5.44 µM
CCOC(=O)N1CCN(c2ccc(C(=O)c3cccc(F)c3)cc2)CC1 | > 19.5 µM (inactive)
CCCCCCSc1cccc(-c2nc3ccc(C)cn3c2NCc2ccccc2)c1 | 3.37 µM
OC(CN1CCN(c2ccccn2)CC1)Cn1c2ccc(Cl)cc2c2cc(Cl)ccc21 (centres undefined) | 6.78 µM
COc1cc(/C=N/O)cc(Br)c1OCc1cccc(Cl)c1 | 6.68 µM
CCOC(=O)/C=C/C(=O)Nc1cccc([N+](=O)[O-])c1 | 8.97 µM
CCOC(=O)C(=Cc1ccc(-n2cncn2)cc1)C(=O)OCC | 6.4 µM
CCCCOc1ccc(S(=O)(=O)N2CCN(c3ccc(N4CCN(CC)CC4)nn3)CC2)cc1 | 0.46 µM
Cc1ccc(-c2cc(C(=O)N/N=C/c3ccccc3O)n[nH]2)o1 | 10.2 µM
CCCCNc1c(-c2ccc(SC(C)CC)cc2)nc2ccccn12 (centres undefined) | 4.06 µM
O=C(c1ccc(CSc2ccccc2)cc1)N1CCN(c2ccccc2)CC1 | 9.49 µM
COc1ccc(C2NCCc3c2[nH]c2ccccc32)cc1CSc1nc2ccccc2s1 (centres undefined) | 4.98 µM
Cc1sc2nc(SCCN(C)C)n(-c3ccccc3)c(=O)c2c1-c1ccc(F)cc1 | 10.2 µM
CCOC(=O)/C(=N/Nc1ccccc1)c1csc(Nc2ccccc2)n1 | 3.69 µM
Cc1cc([N+](=O)[O-])nn1CC(=O)N/N=C/c1ccc(O)cc1O | 5.4 µM
C=C(C)CNC(=S)NNC(=O)CCn1c2ccc(Cl)cc2c2cc(Cl)ccc21 | 1.8 µM
C=C1CCc2c([nH]c3ccc(OCC(C)C)cc23)C1=O | 5.57 µM
O=C(N/N=C/c1ccc2c(c1)OCO2)c1ccc(COCC(F)(F)C(F)F)cc1 | 1.64 µM
COc1ccc(/C=C/c2nc3cc(-c4ccccc4)ccc3o2)cc1O | 9.18 µM
NS(=O)(=O)c1ccc(NC(=O)COC(=O)c2c3c(nc4ccccc24)/C(=C\c2ccc4c(c2)OCO4)CCC3)cc1 | 6.87 µM
CC(=O)[C@@]1(O)C(C)CC2C3C=C(C)C4=Cc5c(cnn5-c5ccccc5)C[C@]4(C)C3C(O)C[C@@]21C (some centres undefined) | 4.03 µM
O=C(Nc1ccc(Nc2ccccc2)cc1)c1cc([N+](=O)[O-])ccc1Cl | 10.6 µM
Cc1nc(NC(=O)CC(C)C)sc1-c1csc(Nc2ccc(Cl)cc2Cl)n1 | 2.38 µM
COc1cc(/C=C/C(=O)c2ccc3c(c2)OCO3)cc(Cl)c1O | 10.8 µM
CCc1ccc(N(CC(=O)Nc2nc3ccc(C)cc3s2)S(=O)(=O)c2c(C)noc2C)cc1 | 6 µM
